Reference: US9271971B2, “Pyrido[3,4-B]indoles and methods of use” (Medivation Technologies, Inc., priority 2009, dated 2016)

Columns and labels:
[1] = biological target: T1, human recombinant serotonin (5-Hydroxytryptamine) 5-HT2A receptor (Homo sapiens, UniProt P28223); assay: Serotonin 5-HT2A radioligand binding assay; conditions: [3H]Ketanserin specific binding; for inhibition at 1 µM: read-out: Percent Inhibition of ligand binding, Serotonin (1 μM ligand concentration) 5-HT2A
T1 construct: expressed in transfected cells; host or cells: Chinese hamster ovary (CHO-K1) cells
T1 sequence (P28223 whole entry): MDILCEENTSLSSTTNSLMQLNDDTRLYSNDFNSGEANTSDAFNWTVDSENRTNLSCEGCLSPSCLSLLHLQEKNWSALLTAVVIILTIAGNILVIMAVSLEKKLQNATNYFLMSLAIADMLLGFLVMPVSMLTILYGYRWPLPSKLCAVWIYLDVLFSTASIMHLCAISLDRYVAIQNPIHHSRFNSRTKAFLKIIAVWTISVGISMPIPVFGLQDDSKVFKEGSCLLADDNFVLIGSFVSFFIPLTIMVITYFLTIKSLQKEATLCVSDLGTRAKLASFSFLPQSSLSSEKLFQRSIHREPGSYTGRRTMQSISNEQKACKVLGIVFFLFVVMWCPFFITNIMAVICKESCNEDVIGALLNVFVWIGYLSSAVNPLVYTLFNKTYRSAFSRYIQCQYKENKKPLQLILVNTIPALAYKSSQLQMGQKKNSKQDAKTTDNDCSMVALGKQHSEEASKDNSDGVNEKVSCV
Method: To evaluate in radioligand binding assays the activity of compounds of the invention, human recombinant serotonin (5-Hydroxytryptamine) 5-HT2A receptor expressed in Chinese hamster ovary (CHO-K1) cells [Bonhaus, D. W. et al., Br. J. Pharmacol. (1995), 115:622; Saucier, C. et al., J. Neurochem. (1997), 68:1998] in a 50 mM Tris-HCl buffer, pH 7.4, was used. Compounds of the invention were incubated with 0.5 nM [^3H]Ketanserin for 60 min. at 25° C. Non-specific binding was estimated in the presence of 1 μM Mianserin. Receptor proteins were filtered and washed, the filters were then counted to determine [^3H]Ketanserin specifically bound. Compounds were screened at 1 μM or lower, using 1% DMSO as vehicle. Biochemical assay results are presented as the percent inhibition of specific binding in Table 4.

[2] = biological target: T2, human recombinant serotonin (5-Hydroxytryptamine) 5-HT2C receptor (Homo sapiens, UniProt P28335); assay: Serotonin 5-HT2C radioligand binding assay; conditions: [3H]Mesulergine specific binding; for inhibition at 1 µM: read-out: Percent Inhibition of ligand binding, Serotonin (1 μM ligand concentration) 5-HT2C
T2 construct: expressed in transfected cells; host or cells: Chinese hamster ovary (CHO-K1) cells
T2 sequence (P28335 33-458): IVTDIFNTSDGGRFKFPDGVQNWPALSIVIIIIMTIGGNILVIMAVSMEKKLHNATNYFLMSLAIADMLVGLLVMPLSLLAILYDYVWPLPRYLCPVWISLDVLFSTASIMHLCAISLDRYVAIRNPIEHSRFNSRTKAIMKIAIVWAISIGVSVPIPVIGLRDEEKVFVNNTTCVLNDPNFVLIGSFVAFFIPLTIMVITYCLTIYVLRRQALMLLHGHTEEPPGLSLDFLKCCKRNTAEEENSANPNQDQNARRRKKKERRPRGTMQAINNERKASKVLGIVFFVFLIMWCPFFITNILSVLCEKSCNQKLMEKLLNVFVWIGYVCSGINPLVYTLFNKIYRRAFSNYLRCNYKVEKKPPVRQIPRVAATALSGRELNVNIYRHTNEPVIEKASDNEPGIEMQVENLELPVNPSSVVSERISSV
Method: To evaluate in radioligand binding assays the activity of compounds of the invention, human recombinant serotonin (5-Hydroxytryptamine) 5-HT2C receptor expressed in Chinese hamster ovary (CHO-K1) cells [Wolf, W. A. et al., J. Neurochem. (1997), 69:1449] in a modified Tris-HCl buffer (50 mM Tris-HCl, pH 7.4, 0.1% Ascorbic Acid, 10 μM Pargyline) was used. Compounds of the invention were incubated with 1 nM [^3H]Mesulergine for 60 min. at 25° C. Non-specific binding was estimated in the presence of 1 μM Mianserin. Receptor proteins were filtered and washed, the filters were then counted to determine [^3H]Mesulergine specifically bound. Compounds were screened at 1 μM or lower, using 1% DMSO as vehicle. Biochemical assay results are presented as the percent inhibition of specific binding in Table 4.

[3] = biological target: T3, human recombinant adrenergic α1D receptor (Homo sapiens, UniProt P25100); assay: Adrenergic α1D radioligand binding assay; conditions: [3H]Prozosin specific binding; for inhibition at 1 µM: read-out: Percent Inhibition of ligand binding, Adrenergic (1 μM ligand conc.) α1D; for inhibition at 0.1 µM: read-out: Percent Inhibition of ligand binding, Adrenergic (0.1 μM ligand conc.) α1D
T3 construct: expressed in transfected cells; host or cells: human embryonic kidney (HEK-293) cells
T3 sequence (P25100 1-572): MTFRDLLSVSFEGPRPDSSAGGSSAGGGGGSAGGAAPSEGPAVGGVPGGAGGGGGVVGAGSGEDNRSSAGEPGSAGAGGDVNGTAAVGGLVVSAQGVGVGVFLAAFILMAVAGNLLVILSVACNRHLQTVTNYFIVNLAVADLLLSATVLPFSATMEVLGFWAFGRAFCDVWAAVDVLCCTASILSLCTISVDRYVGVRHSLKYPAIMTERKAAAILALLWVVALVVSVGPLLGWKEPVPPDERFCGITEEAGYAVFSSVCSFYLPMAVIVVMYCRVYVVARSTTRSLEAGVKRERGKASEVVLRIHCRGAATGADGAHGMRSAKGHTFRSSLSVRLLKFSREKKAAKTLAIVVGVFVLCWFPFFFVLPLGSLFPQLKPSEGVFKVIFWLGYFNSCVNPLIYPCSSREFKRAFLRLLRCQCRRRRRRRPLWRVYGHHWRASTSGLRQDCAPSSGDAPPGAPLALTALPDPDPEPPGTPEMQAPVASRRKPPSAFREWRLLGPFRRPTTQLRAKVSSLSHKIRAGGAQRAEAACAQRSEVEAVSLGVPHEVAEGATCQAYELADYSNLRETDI
Method: To evaluate in radioligand binding assays the activity of compounds of the invention, human recombinant adrenergic α1D receptor expressed in human embryonic kidney (HEK-293) cells [Kenny, B. A. et al. Br. J. Pharmacol. (1995), 115(6):981] in a 50 mM Tris-HCl buffer, pH 7.4, was used. Compounds of invention were incubated with 0.6 nM [^3H]Prozosin for 60 min. at 25° C. Non-specific binding was estimated in the presence of 10 μM phentolamine. Receptor proteins were filtered and washed, the filters were then counted to determine [^3H]Prozosin specifically bound. Compounds were screened at 1 μM or lower, using 1% DMSO as vehicle. Compounds of the invention were tested in this biochemical assay. Biochemical assay results for representative compounds were presented as the percent inhibition of specific binding in Table 3.

[4] = biological target: human recombinant dopamine D2L receptor (Homo sapiens, UniProt P14416); assay: Dopamine D2L radioligand binding assay; conditions: [3H]Spiperone specific binding; for inhibition at 1 µM: read-out: Percent Inhibition of ligand binding, Dopamine (1 μM ligand conc.) D2L
Chain of human recombinant dopamine D2L receptor (P14416 whole entry): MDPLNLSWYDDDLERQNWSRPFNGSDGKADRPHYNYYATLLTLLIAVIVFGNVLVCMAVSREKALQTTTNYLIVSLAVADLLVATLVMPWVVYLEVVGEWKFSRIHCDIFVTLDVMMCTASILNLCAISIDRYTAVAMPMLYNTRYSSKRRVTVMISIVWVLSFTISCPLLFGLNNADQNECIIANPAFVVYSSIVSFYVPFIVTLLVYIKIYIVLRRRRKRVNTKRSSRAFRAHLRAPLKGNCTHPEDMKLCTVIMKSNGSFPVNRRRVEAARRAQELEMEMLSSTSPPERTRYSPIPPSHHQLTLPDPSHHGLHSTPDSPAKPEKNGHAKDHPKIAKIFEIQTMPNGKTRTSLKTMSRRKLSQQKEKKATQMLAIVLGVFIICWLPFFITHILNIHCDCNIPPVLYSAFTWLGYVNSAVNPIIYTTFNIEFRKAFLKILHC
Method: To evaluate in radioligand binding assays the activity of compounds of the invention, human recombinant dopamine D2L receptor expressed in Chinese hamster ovary (CHO) cells [Grandy, D. K. et al. Proc. Natl. Acad. Sci. USA. (1989), 86:9762; Hayes, G. et al., Mol. Endocrinol. (1992), 6:920] in a modified Tris-HCl buffer (50 mM Tris-HCl, pH 7.4, 1.4 mM Ascorbic Acid, 0.001% BSA, 150 mM NaCl) was used. Compounds of the invention were incubated with 0.16 nM [^3H]Spiperone for 120 min. at 25° C. Non-specific binding was estimated in the presence of 10 μM Haloperidol. Receptor proteins were filtered and washed, the filters were then counted to determine [^3H]Spiperone specifically bound. Compounds were screened at 1 μM or lower, using 1% DMSO as vehicle. Biochemical assay results are presented as the percent inhibition of specific binding in Table 3.

SMILES	inhibition at 1 µM [1] [%]	inhibition at 1 µM [2] [%]	inhibition at 1 µM [3] [%]	inhibition at 1 µM [4] [%]	Percent Inhibition of ligand binding, Dopamine (1 μM ligand conc.) D2L [4] [%]	inhibition at 0.1 µM [3] [%]	Percent Inhibition of ligand binding, Adrenergic (1 μM ligand conc.) α1D [3] [%]	Percent Inhibition of ligand binding, Serotonin (1 μM ligand concentration) 5-HT2A [1] [%]	Percent Inhibition of ligand binding, Serotonin (1 μM ligand concentration) 5-HT2C [2] [%]
Cc1ccc2c(c1)c1c(n2CC(=O)c2ccccc2)CN2CCC1C2 (stereo not drawn) [Compound 21]	16	-4	-4	-2	–	–	–	–	–
C/C(=C\n1c2c(c3cc(C)ccc31)C1CCN(C2)C1)c1ccc(F)cc1 (stereo not drawn) [Compound 22]	97	96	81	21	25	–	–	–	–
Cc1ccc2c(c1)c1c(n2CC(=O)NC2CCCCC2)CN2CCC1C2 (stereo not drawn) [Compound 23]	-4	11	18	5	–	–	–	–	–
Cc1ccc2c(c1)c1c(n2CC(=O)N2CCNCC2)CN2CCC1C2 (stereo not drawn) [Compound 24]	3	5	2	-8	–	–	–	–	–
Cc1ccc2c(c1)c1c(n2CC(=O)N2CCC(C)CC2)CN2CCC1C2 (stereo not drawn) [Compound 25]	2	15	-1	9	–	–	–	–	–
Cc1ccc2c(c1)c1c(n2CC(=O)N2CCOCC2)CN2CCC1C2 (stereo not drawn) [Compound 26]	5	20	6	10	–	–	–	–	–
Cc1ccc2c(c1)c1c(n2CC(=O)N(C)C)CN2CCC1C2 (stereo not drawn) [Compound 27]	-4	-1	9	11	–	–	–	–	–
Cc1ccc2c(c1)c1c(n2CC(=O)c2ccc(F)cc2)CN2CCC1C2 (stereo not drawn) [Compound 28]	61	83	49	1	–	–	–	–	–
Cc1ccc2c(c1)c1c(n2CC(=O)c2ccc(Cl)cc2)CN2CCC1C2 (stereo not drawn) [Compound 29]	56	74	42	0	–	–	–	–	–
Cc1ccc2c(c1)c1c(n2CCc2ccncc2)CN2CCC1C2 (stereo not drawn) [Compound 30]	71	85	40	10	–	–	–	–	–
Cc1ccc2c(c1)c1c(n2CC(O)c2ccc(F)cc2)CN2CCC1C2 (stereo not drawn) [Compound 31]	58	46	34	2	–	–	–	–	–
C/C(=C\n1c2c(c3cc(C)ccc31)C1CCN(C2)C1)c1ccc(Cl)cc1 (stereo not drawn) [Compound 32]	86	92	80	-12	–	9	–	–	–
C/C(=C\n1c2c(c3cc(C)ccc31)C1CCN(C2)C1)c1ccc(Cl)cc1Cl (stereo not drawn) [Compound 33]	78	95	–	–	−6	-6	28	–	–
C/C(=C\n1c2c(c3cc(C)ccc31)C1CCN(C2)C1)c1ccc(Cl)cc1Cl (stereo not drawn) [Compound 34]	–	–	–	–	0	–	11	94	99
Cc1ccc2c(c1)c1c(n2C(=O)Cc2ccc(Cl)cc2)CN2CCC1C2 (stereo not drawn) [Compound 36]	89	89	–	3	–	-2	–	–	–
C/C(=C\n1c2c(c3cc(C)ccc31)C1CCN(C2)C1)c1ccccc1F (stereo not drawn) [Compound 38]	90	93	–	1	–	-3	–	–	–
C/C(=C\n1c2c(c3cc(C)ccc31)C1CCN(C2)C1)c1ccncc1 (stereo not drawn) [Compound 44]	67	58	–	9	–	8	–	–	–
COc1ccc(/C(C)=C/n2c3c(c4cc(C)ccc42)C2CCN(C3)C2)cc1 (stereo not drawn) [Compound 45]	98	98	–	-2	–	-1	–	–	–
